# Data: patent US20100267561A1, “HERBICIDAL PYRIDAZINONE DERIVATIVES” (priority 2007, published 2010)
# Columns and labels:
# Type in all cases: in vivo
# [1] = tested on: barnyardgrass (Echinochloa crus-galli); test: Test A pre-/postemergence plant response
# Summary of the method: (§1)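 Ratings are visual, 0–100, where 100 means complete control and 0 no effect, taken roughly 10 days after treatment by comparison with untreated controls. Formulation: non-phytotoxic solvent mixture with surfactant.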
# corn (Zea mays) = test: Test A pre-/postemergence plant response
# Summary of the method: as §1
# [2] = tested on: giant foxtail (Setaria faberi); test: Test A pre-/postemergence plant response
# Summary of the method: as §1
# [3] = tested on: large crabgrass (Digitaria sanguinalis); test: Test A pre-/postemergence plant response
# Summary of the method: as §1
# [4] = tested on: morningglory (Ipomoea coccinea); test: Test A pre-/postemergence plant response
# Summary of the method: as §1
# [5] = tested on: pigweed (Amaranthus retroflexus); test: Test A pre-/postemergence plant response
# Summary of the method: as §1
# [6] = tested on: velvetleaf (Abutilon theophrasti); test: Test A pre-/postemergence plant response
# Summary of the method: as §1
# [7] = tested on: wheat (Triticum aestivum); test: Test A pre-/postemergence plant response
# Summary of the method: as §1
# [8] = tested on: blackgrass (Alopecurus myosuroides); test: Test B pre-/postemergence plant response; conditions: for Blackgrass plant response rating: 8 g ai/ha
# Summary of the method: (§2)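 Preemergence and postemergence (plants 2-18 cm, 1- to 4-leaf stage) applications used test chemicals in a non-phytotoxic solvent with surfactant. Plants were held in a greenhouse 13 to 15 days, then rated visually against controls on a 0-100 scale (0 no effect, 100 complete control).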
# [9] = tested on: catchweed bedstraw (Galium aparine); test: Test B pre-/postemergence plant response; conditions: Preemergence
# Summary of the method: as §2
# [10] = tested on: yellow nutsedge (Cyperus esculentus); test: Test B pre-/postemergence plant response; conditions: for Nutsedge, Yellow plant response rating: 8 g ai/ha
# Summary of the method: as §2
# [11] = Postemergence, 31 g ai/ha, 0 to 100 scale (0 no effect, 100 complete control)
# [12] = Postemergence, 125 g ai/ha, 0 to 100 scale, 0 no effect, 100 complete control
# [13] = Preemergence, 31 g ai/ha, 0 to 100 scale, 0 is no effect, 100 is complete control
# [14] = Preemergence, 125 g ai/ha, 0 to 100 scale (0 no effect, 100 complete control)
# [15] = Postemergence, 16 g ai/ha, scale 0 to 100
# [16] = Postemergence, 31 g ai/ha, scale 0 to 100
# [17] = Postemergence, 62 g ai/ha, scale 0 to 100, 0 no effect, 100 complete control
# [18] = Preemergence, 16 g ai/ha, scale 0 to 100 (0 no effect, 100 complete control)
# [19] = Preemergence, 31 g ai/ha, 0 to 100 scale, 0 no effect, 100 complete control
# [20] = Preemergence, 62 g ai/ha, scale 0 to 100
# [21] = 16 g ai/ha, scale 0 to 100 (0 no effect, 100 complete control)
# [22] = 31 g ai/ha, 0 to 100 scale, 0 no effect, 100 complete control
# [23] = Postemergence, 500 g ai/ha, 0 to 100 scale, 0 no effect, 100 complete control
# [24] = Preemergence, 500 g ai/ha, 0 to 100 scale (0 no effect, 100 complete control)
# [25] = Postemergence, 62 g ai/ha, scale 0 to 100
structure (smiles),measurement,setting,value
Cc1cc(-c2ccc(Cl)cc2)nn1-c1c(OC(=O)c2ccccc2)cnn(C)c1=O [Compound 48],"Plant response rating, Barnyardgrass",[1]; [11],20
same,"Plant response rating, Barnyardgrass",[1]; [12],90
same,"Plant response rating, Barnyardgrass",[1]; [13],60
same,"Plant response rating, Barnyardgrass",[1]; [14],100
same,"Plant response rating, Corn",corn (Zea mays); [11],20
same,"Plant response rating, Corn",corn (Zea mays); [12],60
same,"Plant response rating, Corn",corn (Zea mays); [14],80
same,"Plant response rating, Foxtail, Giant",[2]; [11],30
same,"Plant response rating, Foxtail, Giant",[2]; [12],80
same,"Plant response rating, Foxtail, Giant",[2]; [13],90
same,"Plant response rating, Foxtail, Giant",[2]; [14],100
same,"Plant response rating, Crabgrass, Large",[3]; [11],20
same,"Plant response rating, Crabgrass, Large",[3]; [12],80
same,"Plant response rating, Crabgrass, Large",[3]; [13],60
same,"Plant response rating, Crabgrass, Large",[3]; [14],100
same,"Plant response rating, Morningglory",[4]; [11],0
same,"Plant response rating, Morningglory",[4]; [12],0
same,"Plant response rating, Morningglory",[4]; [13],0
same,"Plant response rating, Morningglory",[4]; [14],0
same,"Plant response rating, Pigweed",[5]; [11],20
same,"Plant response rating, Pigweed",[5]; [12],30
same,"Plant response rating, Pigweed",[5]; [13],0
same,"Plant response rating, Pigweed",[5]; [14],0
same,"Plant response rating, Velvetleaf",[6]; [11],20
same,"Plant response rating, Velvetleaf",[6]; [12],70
same,"Plant response rating, Velvetleaf",[6]; [13],0
same,"Plant response rating, Velvetleaf",[6]; [14],0
same,"Plant response rating, Wheat",[7]; [11],0
same,"Plant response rating, Wheat",[7]; [12],60
same,"Plant response rating, Wheat",[7]; [13],30
same,"Plant response rating, Wheat",[7]; [14],80
same,Blackgrass plant response rating,"[8]; postemergence, 0-100 scale",40
same,"Plant response rating, Blackgrass",[8]; [15],85
same,"Plant response rating, Blackgrass",[8]; [16],85
same,"Plant response rating, Blackgrass",[8]; [17],95
same,"Plant response rating, Blackgrass",[8]; [18],90
same,"Plant response rating, Blackgrass",[8]; [19],90
same,"Plant response rating, Blackgrass",[8]; [20],100
same,Blackgrass plant response rating,"[8]; Preemergence, scale 0 to 100",80
same,"Plant response rating, Galium",[9]; [21],0
same,"Plant response rating, Galium",[9]; [22],0
same,"Nutsedge, Yellow plant response rating","[10]; postemergence, 0-100 scale",0
same,"Plant response rating, Nutsedge, Yellow",[10]; [15],0
same,"Plant response rating, Nutsedge, Yellow",[10]; [16],0
same,"Plant response rating, Nutsedge, Yellow",[10]; [17],0
same,"Plant response rating, Nutsedge, Yellow",[10]; [18],0
same,"Plant response rating, Nutsedge, Yellow","[10]; Preemergence, 31 g ai/ha, scale 0 to 100 (0 no effect, 100 complete control)",0
same,"Plant response rating, Nutsedge, Yellow",[10]; [20],0
same,"Nutsedge, Yellow plant response rating","[10]; Preemergence, scale 0 to 100",0
CCc1cc(-c2ccc(Cl)c(Cl)c2)nn1-c1c(O)cnn(C)c1=O [Compound 20],"Plant response rating, Barnyardgrass",[1]; [12],80
same,"Plant response rating, Barnyardgrass",[1]; [23],100
same,"Plant response rating, Barnyardgrass",[1]; [14],90
same,"Plant response rating, Barnyardgrass",[1]; [24],100
same,"Plant response rating, Corn",corn (Zea mays); [12],70
same,"Plant response rating, Corn",corn (Zea mays); [23],90
same,"Plant response rating, Corn",corn (Zea mays); [14],60
same,"Plant response rating, Corn",corn (Zea mays); [24],90
same,"Plant response rating, Foxtail, Giant",[2]; [12],90
same,"Plant response rating, Foxtail, Giant",[2]; [23],100
same,"Plant response rating, Foxtail, Giant",[2]; [14],90
same,"Plant response rating, Foxtail, Giant",[2]; [24],100
same,"Plant response rating, Crabgrass, Large",[3]; [12],80
same,"Plant response rating, Crabgrass, Large",[3]; [23],100
same,"Plant response rating, Crabgrass, Large",[3]; [14],90
same,"Plant response rating, Crabgrass, Large",[3]; [24],100
same,"Plant response rating, Morningglory",[4]; [12],0
same,"Plant response rating, Morningglory",[4]; [23],0
same,"Plant response rating, Morningglory",[4]; [14],0
same,"Plant response rating, Morningglory",[4]; [24],0
same,"Plant response rating, Pigweed",[5]; [12],0
same,"Plant response rating, Pigweed",[5]; [23],0
same,"Plant response rating, Pigweed",[5]; [14],0
same,"Plant response rating, Pigweed",[5]; [24],0
same,"Plant response rating, Velvetleaf",[6]; [12],0
same,"Plant response rating, Velvetleaf",[6]; [23],0
same,"Plant response rating, Velvetleaf",[6]; [14],0
same,"Plant response rating, Velvetleaf",[6]; [24],0
same,"Plant response rating, Wheat",[7]; [12],50
same,"Plant response rating, Wheat",[7]; [23],70
same,"Plant response rating, Wheat",[7]; [14],60
same,"Plant response rating, Wheat",[7]; [24],80
same,Blackgrass plant response rating,"[8]; postemergence, 0-100 scale",30
same,"Plant response rating, Blackgrass",[8]; [15],50
same,"Plant response rating, Blackgrass",[8]; [25],60
same,"Plant response rating, Blackgrass",[8]; [19],90
same,"Plant response rating, Blackgrass",[8]; [20],90
same,Blackgrass plant response rating,"[8]; Preemergence, scale 0 to 100",10
same,"Plant response rating, Galium",[9]; [21],0
same,"Plant response rating, Galium",[9]; [22],50
same,"Plant response rating, Galium","[9]; 62 g ai/ha, scale 0 to 100",100
same,Galium plant response rating,"[9]; 8 g ai/ha, scale 0 to 100",0
same,"Nutsedge, Yellow plant response rating","[10]; postemergence, 0-100 scale",0
same,"Plant response rating, Nutsedge, Yellow",[10]; [15],0
same,"Plant response rating, Nutsedge, Yellow","[10]; Postemergence, 31 g ai/ha, scale 0 to 100, 0 no effect, 100 complete control",0
same,"Plant response rating, Nutsedge, Yellow",[10]; [25],0
same,"Plant response rating, Nutsedge, Yellow",[10]; [19],0
same,"Plant response rating, Nutsedge, Yellow",[10]; [20],0
same,"Nutsedge, Yellow plant response rating","[10]; Preemergence, scale 0 to 100",0
